Measured values: the supplement of paper PMC8960247
± gives the standard error.

Legend:
621-102 (TSC2-deficient) [1] = assay: relative viability vs DMSO (fraction); higher = less cytotoxic; settings: serum: 0.1% FBS, 72 h
UMB1949 (TSC2-deficient) = assay: as above; settings: serum: 0.1% FBS, 72 h;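 further: renal angiomyolipoma cell lines screened in 384-well plates, viability normalized per plate to DMSO-treated cells, each plate carrying 50 nM rapamycin and 1 µM staurosporine controls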
621-102 (TSC2-deficient) [2] = assay: relative viability vs DMSO; higher = less cytotoxic; settings: serum: 10% FBS, 72 h
621-103 (TSC2-rescued) = assay: as above; settings: serum: 10% FBS, 72 h

Compound | relative viability (621-102 (TSC2-deficient) [1]; 0.0128 nM) | relative viability (621-102 (TSC2-deficient) [1]; 0.064 nM) | relative viability (621-102 (TSC2-deficient) [1]; 0.32 nM) | relative viability (621-102 (TSC2-deficient) [1]; 1.6 nM) | relative viability (621-102 (TSC2-deficient) [1]; 8 nM) | relative viability (621-102 (TSC2-deficient) [1]; 40 nM) | relative viability (621-102 (TSC2-deficient) [1]; 200 nM) | relative viability (621-102 (TSC2-deficient) [1]; 1000 nM) | relative viability (621-102 (TSC2-deficient) [1]; 5000 nM) | relative viability (UMB1949 (TSC2-deficient); 0.0128 nM) | relative viability (UMB1949 (TSC2-deficient); 0.064 nM) | relative viability (UMB1949 (TSC2-deficient); 0.32 nM) | relative viability (UMB1949 (TSC2-deficient); 1.6 nM) | relative viability (UMB1949 (TSC2-deficient); 8 nM) | relative viability (UMB1949 (TSC2-deficient); 40 nM) | relative viability (UMB1949 (TSC2-deficient); 200 nM) | relative viability (UMB1949 (TSC2-deficient); 1000 nM) | relative viability (UMB1949 (TSC2-deficient); 5000 nM) | relative viability (621-102 (TSC2-deficient) [2]; 0.0001 µM) [%] | relative viability (621-102 (TSC2-deficient) [2]; 0.001 µM) [%] | relative viability (621-102 (TSC2-deficient) [2]; 0.01 µM) [%] | relative viability (621-102 (TSC2-deficient) [2]; 0.1 µM) [%] | relative viability (621-102 (TSC2-deficient) [2]; 1 µM) [%] | relative viability (621-102 (TSC2-deficient) [2]; 10 µM) [%] | relative viability (621-103 (TSC2-rescued); 0.0001 µM) [%] | relative viability (621-103 (TSC2-rescued); 0.001 µM) [%] | relative viability (621-103 (TSC2-rescued); 0.01 µM) [%] | relative viability (621-103 (TSC2-rescued); 0.1 µM) [%] | relative viability (621-103 (TSC2-rescued); 1 µM) [%] | relative viability (621-103 (TSC2-rescued); 10 µM) [%]
CC(C)(C)c1cnc(CSc2cnc(NC(=O)C3CCNCC3)s2)o1 | 1.06 | 1.14 | 1.02 | 1.07 | 0.654 | 0.112 | 0.00431 | 0.00292 | 0.00164 | 1.14 | 1.05 | 1.1 | 1.12 | 1.07 | 0.771 | 0.00698 | 0.00188 | 0.00107 | 102.3 ± 0.73 | 107.6 ± 0.94 | 102 ± 3.9 | 51.1 ± 3.1 | 15.7 ± 0.57 | 8.84 ± 0.46 | 99.3 ± 1.4 | 96.57 ± 0.27 | 96.563 ± 0.042 | 49.5 ± 4.3 | 21.27 ± 0.21 | 16.3 ± 1.4
CCOc1ccn(-c2ccc(F)cc2)c(=O)c1C(=O)Nc1ccc(Oc2ccnc(N)c2Cl)c(F)c1 | 1.04 | 0.924 | 0.972 | 0.852 | 0.854 | 0.991 | 0.877 | 0.756 | 0.0351 | 0.977 | 1.06 | 0.983 | 1.01 | 0.867 | 1.03 | 1.02 | 0.984 | 0.0304 | 106 ± 3.3 | 101.7 ± 0.87 | 103 ± 2.8 | 104.97 ± 0.1 | 100 ± 1.6 | 97.17 ± 0.96 | 88.1 ± 3.7 | 93.98 ± 0.29 | 98.93 ± 0.32 | 99.4 ± 1.1 | 97.6 ± 3.9 | 90.8 ± 4.7
CCc1cccc(CC)c1NC(=O)N1Cc2[nH]nc(NC(=O)c3ccc(N4CCN(C)CC4)cc3)c2C1 | 1.02 | 0.947 | 1.01 | 0.767 | 0.524 | 0.292 | 0.0956 | 0.0612 | 0.00895 | 0.986 | 1.13 | 1.17 | 0.98 | 0.853 | 0.0445 | 0.00761 | 0.00148 | 0.000776 | 100 ± 7.8 | 86.5 ± 5.1 | 101 ± 3.2 | 91.7 ± 2.3 | 60.9 ± 2 | 30.4 ± 1.4 | 103 ± 1.6 | 101.9 ± 0.41 | 104.5 ± 0.47 | 103 ± 1.4 | 64.8 ± 1.1 | 17.8 ± 0.74
CO[C@@H](C(=O)N1Cc2[nH]nc(NC(=O)c3ccc(N4CCN(C)CC4)cc3)c2C1)c1ccccc1 | 0.925 | 0.972 | 0.92 | 0.989 | 0.816 | 0.325 | 0.0618 | 0.0757 | 0.00444 | 0.936 | 0.879 | 0.868 | 1.02 | 0.261 | 0.037 | 0.0271 | 0.00276 | 0.000648 | 105 ± 3.9 | 101 ± 2.8 | 98 ± 8.5 | 91.8 ± 2.3 | 64.1 ± 0.79 | 31.6 ± 0.91 | 85.7 ± 2.3 | 90.8 ± 0.93 | 92.6 ± 5 | 89.5 ± 2.8 | 62.3 ± 1.8 | 11.5 ± 0.39
Cc1cc(Nc2cc(CN3CCOCC3)c3nc(C)c(Cc4ccc(Cl)cc4F)n3n2)n[nH]1 | 1.15 | 1.05 | 1.08 | 0.98 | 1.05 | 0.925 | 0.787 | 0.014 | 0.000958 | 1.1 | 1 | 1.03 | 0.938 | 1 | 0.885 | 0.753 | 0.0134 | 0.000916 | 109 ± 2.8 | 108 ± 1.6 | 97.1 ± 3.9 | 101 ± 1.6 | 95.8 ± 1.3 | 26.9 ± 0.53 | 106.8 ± 0.47 | 96.94 ± 0.68 | 90.05 ± 0.81 | 98.4 ± 5.3 | 87.2 ± 2.1 | 8.52 ± 0.44
Cc1cnc(NC(=O)Nc2cc(Br)c(C)cc2OC[C@@H]2CNCCO2)cn1 | 0.474 | 0.234 | 0.185 | 0.103 | 0.0749 | 0.0522 | 0.0206 | 0.0139 | 0.0111 | 0.911 | 0.655 | 0.375 | 0.158 | 0.27 | 0.00749 | 0.0015 | 0.00258 | 0.00665 | 72.1 ± 3.7 | 87.9 ± 6.2 | 95 ± 2.5 | 75.8 ± 2.3 | 29.1 ± 0.86 | 26.8 ± 0.86 | 109.5 ± 0.45 | 103.7 ± 0.67 | 102.8 ± 0.59 | 109 ± 4.1 | 84.09 ± 0.55 | 33.7 ± 0.83
Cn1cc(CNCC2CCN(c3ncc(C(=O)NO)cn3)CC2)c2ccccc21 | 1.02 | 0.835 | 0.708 | 0.585 | 0.288 | 0.0238 | 0.00256 | 0.000673 | 0.000759 | 1.08 | 0.949 | 0.9 | 0.687 | 0.00555 | 0.00221 | 0.0013 | 0.000408 | 0.000355 | 95.9 ± 2.5 | 86.5 ± 1.7 | 59.3 ± 0.89 | 36.84 ± 0.15 | 25.2 ± 0.97 | 18.08 ± 0.036 | 91.4 ± 0.56 | 78.47 ± 0.52 | 44.98 ± 0.16 | 3.52 ± 0.045 | 2.06 ± 0.065 | 1.27 ± 0.15
c1ccc2c(-c3cnn4cc(-c5ccc(N6CCNCC6)cc5)cnc34)ccnc2c1 | 0.953 | 0.778 | 0.956 | 0.795 | 0.719 | 0.83 | 0.534 | 0.0661 | 0.0132 | 1.1 | 1.14 | 1.15 | 1.08 | 1.07 | 1.1 | 0.943 | 0.00737 | 0.0056 | 92.1 ± 4.3 | 95.1 ± 3.5 | 92.2 ± 3.1 | 91.6 ± 2.6 | 71.9 ± 2.9 | 0.885 ± 0.12 | 90.6 ± 2.2 | 104 ± 0.35 | 93.2 ± 1.9 | 88 ± 1.8 | 62.5 ± 2.2 | 0.919 ± 0.12
CN(C)CC[C@H](CSc1ccccc1)Nc1ccc(S(=O)(=O)NC(=O)c2ccc(N3CCN(Cc4ccccc4-c4ccc(Cl)cc4)CC3)cc2)cc1[N+](=O)[O-] [ABT-737] | 0.888 | 0.796 | 0.677 | 0.564 | 0.491 | 0.175 | 0.00664 | 0.00508 | 0.00348 | 1.02 | 0.975 | 0.941 | 0.965 | 0.92 | 0.869 | 0.803 | 0.197 | 0.00643 | 122.1 ± 0.59 | 118 ± 1.4 | 113 ± 1.9 | 107 ± 3.3 | 101 ± 3.6 | 43.2 ± 2 | 101 ± 1.5 | 99.05 ± 0.48 | 97.82 ± 0.7 | 98.61 ± 0.42 | 91.97 ± 0.57 | 43.5 ± 2.2
